In ChEMBL document CHEMBL1201862, “PubChem BioAssay data set” (2004):
Calls of active or inactive are those of the source.

Tests used:
[1] = target: Peroxisome proliferator-activated receptor gamma/Nuclear receptor coactivator 2 (Homo sapiens, UniProt P37231); assay type: functional;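 also: agonist potency for raising coactivator recruitment to the receptor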
[2] = target: Peroxisome proliferator-activated receptor gamma/Nuclear receptor coactivator 1 (Homo sapiens, UniProt P37231); assay type: functional;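 also: agonist potency as compounds enhance coactivator SRC-1 recruitment to PPARgamma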
Chain of Peroxisome proliferator-activated receptor gamma/Nuclear receptor coactivator 1 (P37231 whole entry): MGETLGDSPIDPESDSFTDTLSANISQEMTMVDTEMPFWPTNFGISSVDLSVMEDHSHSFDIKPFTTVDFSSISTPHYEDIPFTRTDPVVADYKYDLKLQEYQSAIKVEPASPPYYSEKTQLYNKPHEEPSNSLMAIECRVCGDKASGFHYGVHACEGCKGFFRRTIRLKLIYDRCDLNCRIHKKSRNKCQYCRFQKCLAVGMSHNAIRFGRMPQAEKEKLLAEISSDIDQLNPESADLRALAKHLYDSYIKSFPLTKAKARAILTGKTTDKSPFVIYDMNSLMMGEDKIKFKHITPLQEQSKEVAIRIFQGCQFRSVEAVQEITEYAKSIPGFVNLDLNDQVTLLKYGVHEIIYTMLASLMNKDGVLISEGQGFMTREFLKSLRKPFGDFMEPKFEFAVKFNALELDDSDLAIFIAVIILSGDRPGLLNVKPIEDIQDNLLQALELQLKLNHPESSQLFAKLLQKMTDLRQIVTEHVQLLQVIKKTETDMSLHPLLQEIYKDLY
Chain of Peroxisome proliferator-activated receptor gamma/Nuclear receptor coactivator 1 (Q15788 whole entry, further chain): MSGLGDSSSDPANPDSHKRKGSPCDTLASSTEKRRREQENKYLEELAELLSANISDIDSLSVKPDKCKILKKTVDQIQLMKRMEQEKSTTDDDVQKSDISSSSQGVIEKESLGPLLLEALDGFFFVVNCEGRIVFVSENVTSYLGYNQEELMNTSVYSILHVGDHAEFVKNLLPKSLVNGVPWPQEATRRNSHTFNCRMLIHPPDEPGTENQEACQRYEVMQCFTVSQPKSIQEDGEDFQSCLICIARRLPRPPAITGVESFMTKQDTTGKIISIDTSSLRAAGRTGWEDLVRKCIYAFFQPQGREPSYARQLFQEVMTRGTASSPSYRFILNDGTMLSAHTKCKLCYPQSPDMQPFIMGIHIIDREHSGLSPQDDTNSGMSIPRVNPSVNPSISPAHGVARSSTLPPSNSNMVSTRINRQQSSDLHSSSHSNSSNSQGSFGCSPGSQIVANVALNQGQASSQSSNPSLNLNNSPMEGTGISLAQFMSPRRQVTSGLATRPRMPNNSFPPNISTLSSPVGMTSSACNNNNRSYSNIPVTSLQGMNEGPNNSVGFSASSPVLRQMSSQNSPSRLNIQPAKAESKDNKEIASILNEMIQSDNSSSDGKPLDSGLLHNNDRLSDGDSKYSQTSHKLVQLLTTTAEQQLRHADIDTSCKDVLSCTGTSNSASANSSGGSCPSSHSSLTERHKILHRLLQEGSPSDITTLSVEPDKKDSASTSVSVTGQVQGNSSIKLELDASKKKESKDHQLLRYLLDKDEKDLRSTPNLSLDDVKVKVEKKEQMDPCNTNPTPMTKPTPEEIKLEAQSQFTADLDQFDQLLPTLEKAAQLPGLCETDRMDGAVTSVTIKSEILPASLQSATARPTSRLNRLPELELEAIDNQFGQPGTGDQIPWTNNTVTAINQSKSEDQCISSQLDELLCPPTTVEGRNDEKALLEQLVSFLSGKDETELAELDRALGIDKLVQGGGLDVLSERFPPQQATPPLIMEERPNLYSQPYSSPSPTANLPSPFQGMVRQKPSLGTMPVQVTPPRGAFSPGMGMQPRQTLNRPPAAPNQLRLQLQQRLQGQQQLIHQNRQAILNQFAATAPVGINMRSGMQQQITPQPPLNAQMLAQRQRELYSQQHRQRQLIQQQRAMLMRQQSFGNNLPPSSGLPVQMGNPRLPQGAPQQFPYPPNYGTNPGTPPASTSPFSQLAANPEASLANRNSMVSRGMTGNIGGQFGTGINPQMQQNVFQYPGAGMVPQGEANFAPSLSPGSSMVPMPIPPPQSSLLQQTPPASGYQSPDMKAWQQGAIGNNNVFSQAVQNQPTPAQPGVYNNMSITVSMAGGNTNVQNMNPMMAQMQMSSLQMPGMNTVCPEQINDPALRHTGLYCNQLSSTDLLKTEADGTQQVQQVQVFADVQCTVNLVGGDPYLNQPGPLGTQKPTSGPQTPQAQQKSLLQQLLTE

[3] = target: Peroxisome proliferator-activated receptor gamma/Nuclear receptor coactivator 3 (Homo sapiens, UniProt P37231); assay type: functional;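 also: agonist potency for raising coactivator recruitment to the receptor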
Chain of Peroxisome proliferator-activated receptor gamma/Nuclear receptor coactivator 3 (P37231 whole entry): as the sequence (P37231 whole entry) above
Chain of Peroxisome proliferator-activated receptor gamma/Nuclear receptor coactivator 3 (Q9Y6Q9 whole entry, further chain): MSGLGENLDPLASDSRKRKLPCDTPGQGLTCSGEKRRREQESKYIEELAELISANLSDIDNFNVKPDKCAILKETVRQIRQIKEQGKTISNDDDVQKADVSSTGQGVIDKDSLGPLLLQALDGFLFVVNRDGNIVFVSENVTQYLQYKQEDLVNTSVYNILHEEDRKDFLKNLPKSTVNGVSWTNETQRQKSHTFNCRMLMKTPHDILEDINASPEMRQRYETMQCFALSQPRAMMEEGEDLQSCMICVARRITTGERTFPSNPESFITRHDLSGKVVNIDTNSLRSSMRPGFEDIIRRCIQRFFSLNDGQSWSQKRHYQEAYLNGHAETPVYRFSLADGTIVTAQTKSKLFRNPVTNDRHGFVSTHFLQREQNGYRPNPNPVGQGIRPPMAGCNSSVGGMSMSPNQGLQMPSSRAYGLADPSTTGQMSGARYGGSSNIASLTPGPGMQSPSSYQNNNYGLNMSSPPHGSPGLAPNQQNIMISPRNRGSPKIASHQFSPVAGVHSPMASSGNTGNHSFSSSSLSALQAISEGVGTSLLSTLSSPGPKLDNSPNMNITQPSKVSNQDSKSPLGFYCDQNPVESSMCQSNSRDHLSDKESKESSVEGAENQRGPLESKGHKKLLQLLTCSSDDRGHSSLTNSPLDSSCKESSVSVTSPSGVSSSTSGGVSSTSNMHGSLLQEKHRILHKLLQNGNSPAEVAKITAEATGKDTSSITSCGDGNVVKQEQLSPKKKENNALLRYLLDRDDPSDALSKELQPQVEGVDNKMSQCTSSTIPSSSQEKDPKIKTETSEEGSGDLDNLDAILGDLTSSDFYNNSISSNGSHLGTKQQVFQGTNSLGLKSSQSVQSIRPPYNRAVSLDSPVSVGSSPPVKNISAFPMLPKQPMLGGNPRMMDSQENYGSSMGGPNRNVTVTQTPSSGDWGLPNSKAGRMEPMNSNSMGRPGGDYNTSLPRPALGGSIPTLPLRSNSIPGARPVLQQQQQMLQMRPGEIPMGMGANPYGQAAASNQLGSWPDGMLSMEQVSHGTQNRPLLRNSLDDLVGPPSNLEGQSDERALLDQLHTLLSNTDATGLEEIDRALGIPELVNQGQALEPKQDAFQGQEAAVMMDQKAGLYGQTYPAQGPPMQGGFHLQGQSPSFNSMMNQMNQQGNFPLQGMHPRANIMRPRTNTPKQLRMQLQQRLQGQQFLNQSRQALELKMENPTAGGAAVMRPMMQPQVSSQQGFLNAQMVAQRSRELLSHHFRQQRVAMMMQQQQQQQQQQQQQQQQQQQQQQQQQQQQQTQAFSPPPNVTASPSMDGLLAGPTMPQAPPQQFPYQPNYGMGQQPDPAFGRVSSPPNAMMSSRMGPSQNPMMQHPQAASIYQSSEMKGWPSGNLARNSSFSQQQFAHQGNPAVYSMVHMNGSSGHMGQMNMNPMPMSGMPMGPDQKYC

Estrogen receptor = target: T1, Estrogen receptor (Homo sapiens, UniProt P03372); experiment: blockers of SRC-3 recruitment to ERα – biochemical, ELISA, streptavidin-HRP readout, orthogonal assay, confirmation (AID 1079)
T1 sequence (P03372 whole entry): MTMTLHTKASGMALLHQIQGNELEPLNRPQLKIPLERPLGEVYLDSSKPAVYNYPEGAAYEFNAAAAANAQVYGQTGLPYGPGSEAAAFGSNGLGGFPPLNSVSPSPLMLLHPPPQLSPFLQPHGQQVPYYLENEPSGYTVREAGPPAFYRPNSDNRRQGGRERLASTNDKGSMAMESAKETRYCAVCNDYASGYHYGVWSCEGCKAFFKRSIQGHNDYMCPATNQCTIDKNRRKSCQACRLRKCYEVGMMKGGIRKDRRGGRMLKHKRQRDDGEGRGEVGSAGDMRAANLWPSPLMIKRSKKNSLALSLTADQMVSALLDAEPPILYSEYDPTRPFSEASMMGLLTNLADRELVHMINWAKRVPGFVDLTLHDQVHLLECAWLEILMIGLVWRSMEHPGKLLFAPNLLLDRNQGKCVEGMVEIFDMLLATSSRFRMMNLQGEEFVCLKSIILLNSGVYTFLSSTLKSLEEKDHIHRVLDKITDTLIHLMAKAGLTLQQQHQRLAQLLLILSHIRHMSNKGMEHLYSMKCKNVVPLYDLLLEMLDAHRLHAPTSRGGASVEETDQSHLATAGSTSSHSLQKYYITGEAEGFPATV

[4] = antiviral protection against BTV-induced cell death – arbovirus, BSR cells, confirmation (AID 1250); assay type: functional;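 also: protection from viral cytopathic effect measured as cell viability by ATP luminescence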
[5] = NIH3T3 cell viability loss – ATP luminescence, mouse fibroblasts, counter-screen, dose response (AID 2010); assay type: functional, cell-based;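 also: cells exposed to compound for about 90 hours before reading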
[6] = target: T2, RNA-binding protein pos-1 (Caenorhabditis elegans, UniProt G5EF15); experiment: disruptors of C. elegans POS-1 RNA interaction – biochemical, fluorescence polarization, dose response (AID 1964);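 also: purified POS-1 fused to maltose binding protein made in E. coli; potency of compounds blocking POS-1 binding to fluorescent RNA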
T2 sequence (G5EF15 whole entry): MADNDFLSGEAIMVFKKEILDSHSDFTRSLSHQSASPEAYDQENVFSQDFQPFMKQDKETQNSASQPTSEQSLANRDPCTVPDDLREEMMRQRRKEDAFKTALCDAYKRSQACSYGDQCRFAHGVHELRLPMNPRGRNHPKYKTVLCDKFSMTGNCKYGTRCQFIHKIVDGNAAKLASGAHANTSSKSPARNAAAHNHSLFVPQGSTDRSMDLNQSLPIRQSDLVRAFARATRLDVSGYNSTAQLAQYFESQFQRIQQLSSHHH

[7] = Trypanosoma cruzi growth suppression in host cells – NIH3T3 host cells, beta-gal luminescence, confirmation (AID 2044); assay type: functional, cell-based;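 also: intracellular parasites grown in NIH/3T3 mouse fibroblasts as host cells; luminescent beta-galactosidase reporter signal from transgenic T. cruzi replicating inside host cells; inhibitors lower the luminescence signal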
[8] = target: Mothers against decapentaplegic homolog 3 (Homo sapiens, UniProt P84022); experiment: inhibitors of SMAD-driven TGF-beta signaling – dose response (AID 715); assay type: functional
Chain of Mothers against decapentaplegic homolog 3 (P84022 whole entry): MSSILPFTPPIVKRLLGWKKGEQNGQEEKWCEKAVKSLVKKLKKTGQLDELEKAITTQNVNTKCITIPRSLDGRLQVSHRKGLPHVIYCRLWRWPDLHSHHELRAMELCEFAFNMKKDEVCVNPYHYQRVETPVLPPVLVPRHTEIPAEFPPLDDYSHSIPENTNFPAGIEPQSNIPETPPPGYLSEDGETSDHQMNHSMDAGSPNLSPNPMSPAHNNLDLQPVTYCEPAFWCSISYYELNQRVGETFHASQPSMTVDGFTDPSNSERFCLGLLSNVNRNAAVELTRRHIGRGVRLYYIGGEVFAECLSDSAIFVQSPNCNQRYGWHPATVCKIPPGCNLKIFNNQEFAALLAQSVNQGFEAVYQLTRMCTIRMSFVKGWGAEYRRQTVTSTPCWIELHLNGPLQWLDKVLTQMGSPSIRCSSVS

[9] = target: T3, Zinc finger protein mex-5 (Caenorhabditis elegans, UniProt Q9XUB2); experiment: potency of MEX-5 RNA-binding blockers – biochemical, C. elegans, fluorescence polarization, dose response (AID 1960)
T3 sequence (Q9XUB2 whole entry): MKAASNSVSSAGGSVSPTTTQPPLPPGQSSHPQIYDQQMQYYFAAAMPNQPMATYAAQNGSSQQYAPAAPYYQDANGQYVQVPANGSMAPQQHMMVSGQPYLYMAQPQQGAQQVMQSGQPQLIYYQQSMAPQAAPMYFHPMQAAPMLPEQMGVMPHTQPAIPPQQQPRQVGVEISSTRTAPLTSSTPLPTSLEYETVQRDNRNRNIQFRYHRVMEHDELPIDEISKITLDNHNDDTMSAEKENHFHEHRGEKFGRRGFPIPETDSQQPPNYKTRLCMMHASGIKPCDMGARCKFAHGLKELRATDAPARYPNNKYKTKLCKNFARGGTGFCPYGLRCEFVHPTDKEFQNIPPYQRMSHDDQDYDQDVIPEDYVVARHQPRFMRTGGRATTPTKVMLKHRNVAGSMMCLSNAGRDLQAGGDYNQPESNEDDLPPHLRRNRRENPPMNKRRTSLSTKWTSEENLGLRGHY

Ion channel NompC = Ion channel NompC (Danio rerio, UniProt Q7T1G6); experiment: Fluorescence counterscreen assay for TRPML3 agonists: dose response cell-based high-throughput screening assay to identify agonists of the transient receptor potential channel N1 (TRPN1). [Related pubchem assays: 1526, 1424, 1448 ]; assay type: functional
Mucolipin-3 = Mucolipin-3 (Homo sapiens, UniProt Q8TDD5); experiment: Dose response cell-based high-throughput screening assay for agonists of the transient receptor potential channel ML3 (TRPML3). [Related pubchem assays: 1526, 1424, 1448 ]; assay type: functional
Chain of Mucolipin-3 (Q8TDD5 whole entry, the tested form may be a part): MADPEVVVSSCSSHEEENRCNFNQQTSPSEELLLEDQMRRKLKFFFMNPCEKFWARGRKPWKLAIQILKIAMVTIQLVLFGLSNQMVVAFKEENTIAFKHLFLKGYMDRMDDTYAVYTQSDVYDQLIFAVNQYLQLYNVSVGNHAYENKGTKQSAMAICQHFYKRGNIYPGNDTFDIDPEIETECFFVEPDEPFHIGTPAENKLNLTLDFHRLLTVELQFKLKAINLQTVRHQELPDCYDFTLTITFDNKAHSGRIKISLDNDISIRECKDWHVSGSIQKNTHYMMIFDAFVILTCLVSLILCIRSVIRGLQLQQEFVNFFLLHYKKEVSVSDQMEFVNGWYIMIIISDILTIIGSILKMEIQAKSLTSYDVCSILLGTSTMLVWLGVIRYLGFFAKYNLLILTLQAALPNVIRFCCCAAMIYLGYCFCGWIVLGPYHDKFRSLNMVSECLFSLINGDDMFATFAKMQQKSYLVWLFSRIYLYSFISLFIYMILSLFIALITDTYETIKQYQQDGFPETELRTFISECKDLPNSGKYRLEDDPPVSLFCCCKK

[10] = CCR5-tropic HIV-1 fusion blockers – cell-based, CCR5-tropic Env, dose response (AID 2279); assay type: functional
Aminopeptidase N = target: T4, Aminopeptidase N (Plasmodium falciparum FcB1/Columbia, UniProt O96935); experiment: malaria alanyl aminopeptidase activity blockers – biochemical, fluorogenic H-Leu-NHMec substrate, 1536-well (AID 1445); parameters: species or system Plasmodium falciparum 3D7, 3D7
T4 sequence (O96935 whole entry): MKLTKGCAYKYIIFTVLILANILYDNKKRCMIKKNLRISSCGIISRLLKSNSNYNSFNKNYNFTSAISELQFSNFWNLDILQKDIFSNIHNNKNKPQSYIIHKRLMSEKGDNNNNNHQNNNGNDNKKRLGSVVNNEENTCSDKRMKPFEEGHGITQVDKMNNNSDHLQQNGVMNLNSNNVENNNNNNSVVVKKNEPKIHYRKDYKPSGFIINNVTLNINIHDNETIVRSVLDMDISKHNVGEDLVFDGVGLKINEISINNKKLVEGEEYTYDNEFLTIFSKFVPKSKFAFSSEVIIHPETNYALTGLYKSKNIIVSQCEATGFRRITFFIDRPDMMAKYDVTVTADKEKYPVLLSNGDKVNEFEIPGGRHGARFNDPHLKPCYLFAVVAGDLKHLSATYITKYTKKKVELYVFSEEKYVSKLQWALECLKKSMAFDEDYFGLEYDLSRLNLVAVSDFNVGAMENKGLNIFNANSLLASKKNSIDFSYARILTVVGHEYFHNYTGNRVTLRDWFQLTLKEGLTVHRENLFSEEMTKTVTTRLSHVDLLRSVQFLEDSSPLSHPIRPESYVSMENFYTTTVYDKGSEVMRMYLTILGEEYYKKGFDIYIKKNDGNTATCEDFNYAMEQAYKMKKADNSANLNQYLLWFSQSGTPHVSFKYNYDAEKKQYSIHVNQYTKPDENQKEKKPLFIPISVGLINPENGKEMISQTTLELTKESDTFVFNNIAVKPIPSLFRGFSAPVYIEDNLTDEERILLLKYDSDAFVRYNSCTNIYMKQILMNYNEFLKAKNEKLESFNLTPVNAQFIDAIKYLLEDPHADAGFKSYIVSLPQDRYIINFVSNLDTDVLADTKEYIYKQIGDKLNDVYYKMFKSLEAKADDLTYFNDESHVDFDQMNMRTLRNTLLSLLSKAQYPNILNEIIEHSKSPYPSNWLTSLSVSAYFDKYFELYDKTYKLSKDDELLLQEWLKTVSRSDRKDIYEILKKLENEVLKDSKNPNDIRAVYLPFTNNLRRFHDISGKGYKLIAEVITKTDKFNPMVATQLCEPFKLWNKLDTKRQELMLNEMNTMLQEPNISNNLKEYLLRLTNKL

[11] = target: T5, Rac GTPase-activating protein 1 (Homo sapiens, UniProt Q9H0H5); experiment: blockers of MgcRacGAP-driven Rac1 GTP hydrolysis – biochemical, ADP Hunter fluorescence, primary and confirmatory, confirmation (AID 624330); assay type: functional
T5 sequence (Q9H0H5 whole entry): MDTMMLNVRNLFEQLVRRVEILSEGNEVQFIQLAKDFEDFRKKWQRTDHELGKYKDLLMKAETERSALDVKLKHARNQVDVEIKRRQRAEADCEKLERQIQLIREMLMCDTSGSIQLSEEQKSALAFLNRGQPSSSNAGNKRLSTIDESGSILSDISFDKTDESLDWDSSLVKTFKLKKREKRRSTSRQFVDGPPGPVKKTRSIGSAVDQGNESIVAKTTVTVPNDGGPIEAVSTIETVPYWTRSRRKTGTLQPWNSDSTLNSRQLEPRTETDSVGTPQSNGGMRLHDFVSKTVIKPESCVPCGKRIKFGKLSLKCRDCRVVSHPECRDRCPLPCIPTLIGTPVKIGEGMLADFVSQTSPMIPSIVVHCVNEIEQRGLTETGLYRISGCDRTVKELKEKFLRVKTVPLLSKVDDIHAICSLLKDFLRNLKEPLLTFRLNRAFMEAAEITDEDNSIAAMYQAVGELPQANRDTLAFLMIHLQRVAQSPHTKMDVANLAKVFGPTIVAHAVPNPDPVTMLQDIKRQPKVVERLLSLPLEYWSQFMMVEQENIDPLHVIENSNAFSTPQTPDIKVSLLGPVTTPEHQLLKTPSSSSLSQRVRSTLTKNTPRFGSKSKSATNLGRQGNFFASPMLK

HeLa = experiment: Cytotoxicity counterscreen assay for transcriptional activators of heat shock protein 70 (Hsp70). [Related pubchem assays: 1203, 1252 ]; assay type: functional; conditions: Homo sapiens;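 also: cells exposed to compound for 16 hours before readout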
Streptokinase A = target: T6, Streptokinase A (Streptococcus pyogenes serotype M1, UniProt P10520); experiment: viability-normalized secreted streptokinase activity reduction – plasminogen activation absorbance, OD405, dose response (AID 1914); assay type: functional, Streptococcus pyogenes M1 GAS;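 also: secreted streptokinase activity via plasminogen activation per viability signal from cell pellet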
T6 sequence (P10520 whole entry): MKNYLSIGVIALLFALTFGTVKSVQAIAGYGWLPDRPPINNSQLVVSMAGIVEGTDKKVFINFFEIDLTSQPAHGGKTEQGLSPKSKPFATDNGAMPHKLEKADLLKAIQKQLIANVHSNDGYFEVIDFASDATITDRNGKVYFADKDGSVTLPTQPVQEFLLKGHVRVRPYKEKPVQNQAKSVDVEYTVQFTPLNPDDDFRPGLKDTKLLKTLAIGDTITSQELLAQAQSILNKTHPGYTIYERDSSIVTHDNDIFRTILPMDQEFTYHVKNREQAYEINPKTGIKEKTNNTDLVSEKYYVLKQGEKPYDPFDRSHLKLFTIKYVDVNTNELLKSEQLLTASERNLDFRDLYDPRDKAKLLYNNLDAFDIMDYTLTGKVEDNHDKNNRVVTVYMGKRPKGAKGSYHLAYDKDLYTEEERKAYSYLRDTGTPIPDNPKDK

[12] = target: T7, Probable nicotinate-nucleotide adenylyltransferase (Staphylococcus aureus (strain N315), UniProt P65502); assay type: functional, Staphylococcus aureus subsp. aureus N315;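 as to IC50 Mean: confirmatory dose-response retesting of NadD inhibitor hits first found in an ultra-high-throughput screen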
T7 sequence (P65502 whole entry): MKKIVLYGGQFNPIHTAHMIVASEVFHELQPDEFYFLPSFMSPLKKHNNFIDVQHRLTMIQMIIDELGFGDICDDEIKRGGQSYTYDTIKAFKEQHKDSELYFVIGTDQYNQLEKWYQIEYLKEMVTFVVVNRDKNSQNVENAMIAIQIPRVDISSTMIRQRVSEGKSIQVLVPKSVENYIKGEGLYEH

[13] = mitochondrial function rescue without frataxin homolog – Friedreich's ataxia, plus single-dose screen, dose response (AID 1465); assay type: functional;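 also: yeast depleted of Yfh1p frataxin homolog grown on glycerol needing respiration; WST-1 tetrazolium dye reduction as measure of cellular dehydrogenase metabolic activity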
[14] = target: T7, Probable nicotinate-nucleotide adenylyltransferase; assay type: functional, Staphylococcus aureus subsp. aureus N315; conditions: read-out: IC50_Mean
Streptococcus = experiment: GAS UMAA2166 growth inhibition – luminescence, BacTiterGlo, counter-screen for streptokinase expression inhibitor project, dose response (AID 1915); assay type: functional, organism-based;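 also: potency for reduction of bacterial viability or growth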
[15] = Luminescence Cell-Based Dose Retest to Confirm Inhibitors of Cancer Stem Cells. [Related pubchem assays (depositor defined):AID2717, AID2721]; assay type: functional; conditions: Homo sapiens
[16] = tested on: Streptococcus sp. 'group A'; experiment: Streptococcus pyogenes SK(-)GAS viability under kanamycin – luminescence, BacTiterGlo, confirmation, counter-screen for streptokinase expression inhibitor project, dose response (AID 1900); assay type: functional, organism-based
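For AC50 in this document: cells exposed to compound for roughly 70 hours or longer before luminescence read.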

With `CCOC(=O)C1CCN(C(=O)CSc2ccccc2Cl)CC1` the EC50 [1] was > 79.4 µM (not active), the EC50 [2] was > 79.4 µM (not active) and the EC50 [3] was > 79.4 µM (not active).

In the case of `COc1ccc(N2CCN(C(=O)CCCn3c(=S)[nH]c4ccccc4c3=O)CC2)cc1`, the IC50 (Estrogen receptor) is reported as > 50 µM (not active).

In the case of `Cc1cc(C)c2c(O)nc(SCC(=O)c3ccc(C)c(C)c3)nc2n1`, the IC50 [4] is reported as 27.6 µM (active).

With `CCCN1CCCc2cc(CN)ccc21` the EC50 [5] was > 30 µM (not active), the EC50 [6] was 18.5 µM (active) and the EC50 [7] was 0.127 µM (active). For the same molecule, the IC50 [8] was 24.6 µM (active) and the EC50 [9] was 13 µM (active).

For `Cc1onc(-c2ccccc2Cl)c1C(=O)Nc1cccc(-c2nc3ncccn3c2C)c1`, the EC50 (Ion channel NompC) was > 29.9 µM (not active) and the EC50 (Mucolipin-3) was > 29.9 µM (not active).

With `COc1cc(/C=C2\SC(=O)N(CC(=O)Nc3cccc(C)c3)C2=O)cc([N+](=O)[O-])c1O` the IC50 [10] was > 50 µM (active) and the IC50 (Aminopeptidase N) was 40.8 µM (active).

With `COc1ccccc1C1Nc2cccc3cccc(c23)N1` the IC50 [11] was 35.1 µM (active) and the CC50 (HeLa) was > 99 µM (not active).

For `Oc1nc(NN=C(S)NCc2ccccc2)nc2c1C1(CCCCC1)Cc1ccccc1-2`, the EC50 (Streptokinase A) was 4.58 µM (active), the IC50 [12] was 11.8 µM (active) and the EC50 [13] was > 100 µM (active). For the same molecule, the IC50 [14] was 35.8 µM (active), the EC50 (Streptococcus) was 6.03 µM (active) and the AC50 [15] was 3 µM (active). The EC50 [16] was 3.33 µM (active).
